Laboratory results taken from publication PMC10485906, “Development of a Dihydroquinoline–Pyrazoline GluN2C/2D-Selective Negative Allosteric Modulator of the N-Methyl-D-aspartate Receptor” (ACS Chemical Neuroscience, 2023).
Read-outs that look alike come from different tables or passages of the source.

Tests used:
[1] = biological target: T1, GluN1/GluN2D (Rattus norvegicus, UniProt Q62645); experiment: Whole-cell voltage-clamp recordings, HEK cells, GluN1/GluN2D (agonist dependence); type: cell-based
T1 sequence (Q62645 28-1323, other chains not shown): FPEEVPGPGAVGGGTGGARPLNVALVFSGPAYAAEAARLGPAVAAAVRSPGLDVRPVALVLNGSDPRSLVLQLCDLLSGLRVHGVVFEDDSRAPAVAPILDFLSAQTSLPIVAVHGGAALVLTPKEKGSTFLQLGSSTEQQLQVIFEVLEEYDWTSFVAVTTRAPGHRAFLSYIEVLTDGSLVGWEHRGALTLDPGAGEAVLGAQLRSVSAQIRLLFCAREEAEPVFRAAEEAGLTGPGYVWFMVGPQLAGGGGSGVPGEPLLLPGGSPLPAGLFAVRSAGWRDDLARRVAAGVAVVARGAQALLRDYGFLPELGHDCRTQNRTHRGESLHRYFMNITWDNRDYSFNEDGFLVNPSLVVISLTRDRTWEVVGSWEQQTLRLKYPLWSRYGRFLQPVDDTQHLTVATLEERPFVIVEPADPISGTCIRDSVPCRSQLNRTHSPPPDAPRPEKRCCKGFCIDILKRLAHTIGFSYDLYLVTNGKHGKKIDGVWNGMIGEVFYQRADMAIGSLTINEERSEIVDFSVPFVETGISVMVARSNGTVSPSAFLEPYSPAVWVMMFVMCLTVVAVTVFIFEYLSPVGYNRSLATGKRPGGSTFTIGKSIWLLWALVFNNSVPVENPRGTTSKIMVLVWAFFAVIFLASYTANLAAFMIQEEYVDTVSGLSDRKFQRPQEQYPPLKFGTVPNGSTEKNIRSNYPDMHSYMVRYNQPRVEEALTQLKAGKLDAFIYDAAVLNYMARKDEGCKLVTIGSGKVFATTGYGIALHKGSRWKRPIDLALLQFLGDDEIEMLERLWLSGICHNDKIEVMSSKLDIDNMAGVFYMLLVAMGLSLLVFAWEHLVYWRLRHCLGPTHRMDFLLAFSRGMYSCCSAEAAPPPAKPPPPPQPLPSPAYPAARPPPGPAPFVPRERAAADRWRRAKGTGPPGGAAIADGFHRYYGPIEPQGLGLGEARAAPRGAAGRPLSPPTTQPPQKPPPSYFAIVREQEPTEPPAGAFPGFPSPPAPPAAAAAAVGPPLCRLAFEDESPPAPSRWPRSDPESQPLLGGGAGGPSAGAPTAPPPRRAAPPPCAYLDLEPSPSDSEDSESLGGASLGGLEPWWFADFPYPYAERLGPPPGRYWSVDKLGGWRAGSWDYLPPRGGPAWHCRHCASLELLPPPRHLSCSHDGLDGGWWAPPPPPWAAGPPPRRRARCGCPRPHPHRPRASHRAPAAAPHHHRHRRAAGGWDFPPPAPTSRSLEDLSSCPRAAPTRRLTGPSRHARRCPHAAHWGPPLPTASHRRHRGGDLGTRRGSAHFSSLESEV
Description: (§1) We previously described the actions of the GluN2C/GluN2D-preferring negative allosteric modulator DQP-1105 as dependent on glutamate (but not glycine) binding, in that DQP-1105 affinity increases after GluN1/GluN2D NMDARs bind glutamate.[32] […] The concentration-dependent relaxation is indicative of an agonist-induced increase in potency that leads to re-equilibration of the inhibitor after agonist binding induces an increase in inhibitor affinity. We investigated the glutamate dependence of compound 2i (GluN1/GluN2D, Figure 4; GluN1/GluN2C, Figure S2), DQP-1105 (Figure S1), and compound (S)-2a (DQP-69;[33]Figure S3) using the same protocols.
(§2) We preincubated cells with glycine and the inhibitor 2i (DQP-997-74) and compared inhibitor potency during the peak and steady-state current responses to glutamate application. […] To investigate the time course of 2i inhibition, we fitted the relaxation of the current response with a single exponential function. If the current response time course reflects 2i binding, then the reciprocal of τinhibition should be linearly related to its concentration, with the slope equal to kON and intercept equal to kOFF. […] The deactivation of GluN1/GluN2D receptors (5.3 ± 0.2 s) was slowed by the presence of compound 2i when applied at concentrations of 0.1 μM (7.3 ± 0.3 s; p = 0.017) and 0.3 μM (10.5 ± 1.0 s; p = 0.002) but not at 0.03 μM (5.6 ± 0.3 s; p = 0.518; Figure 4E). […] This phenomenon was previously discovered for QNZ-46, a glutamate-dependent GluN2C/2D-selective inhibitor with a different structural core.[42] As proposed in that study, the prolonged deactivation may indicate that 2i slows a conformational change necessary for glutamate unbinding or 2i may need to unbind before glutamate can unbind.
(§3) In addition, we evaluated how glutamate dependence affects inhibition of responses to brief agonist applications similar to phasic glutamate release that occurs at synapses. To do so, we preincubated cells expressing GluN1/GluN2D receptors with the inhibitor 2i and then applied trains of five brief pulses of NMDA (which dissociates more rapidly than glutamate) and glycine from a pressurized micropipette to mimic repetitive synaptic transmission (Figure 4F). We measured the peak amplitude and compared the concentration–response curves for the inhibition of the first and last response (Figure 4G). The initial train of pulses in the absence of drug controls for systematic errors such as internalization of receptors.
(§4) To further evaluate whether 2i followed the law of mass action, we coapplied different concentrations of 2i with glutamate during the steady-state glutamate and glycine responses of GluN1/GluN2D receptors expressed in HEK cells (Figure 4H). […] We also fitted the onset and offset time course of the inhibition produced by compound 2i with a single exponential function (Figure 4J).
(§5) HEK293 cells (HEK, ATCC CRL-1573) were plated on glass coverslips pretreated with 0.1 mg/mL poly-D-lysine and cultured in Dulbecco’s modified Eagle medium (DMEM) plus Glutamax (GIBCO 10569-10) supplemented with 10% fetal bovine serum, 10 U/mL of penicillin, and 10 μg/mL of streptomycin at 37 °C and 5% CO2. The cells were transiently transfected with cDNA encoding rat GluN1, GluN2D, and eGFP at a ratio of 1:1:5 by using the calcium phosphate precipitation method.[48] After 24–48 h following the transfection, the cells were perfused with external recording solution that contained (in mM) 3 KCl, 150 NaCl, 0.01 EDTA, 1.0 CaCl2, 10 HEPES, and 22 D-mannitol (the pH was adjusted to 7.4 with NaOH). The patch electrodes (resistance 3–5 MΩ) were prepared from thin-walled glass micropipettes (TW150F-4, World Precision Instruments, Sarasota, FL) by a dual-stage glass micropipette puller (PC-10, Narishige, Tokyo, Japan) and filled with internal solution containing (in mM) 110 D-gluconate, 110 CsOH, 30 CsCl, 5 HEPES, 4 NaCl, 0.5 CaCl2, 2 MgCl2, 5 BAPTA, 2 NaATP, and 0.3 NaGTP. […]

[2] = biological target: GluN1/GluN2D (Rattus norvegicus, UniProt P35439+Q62645); experiment: as above; type: cell-based
Chain of GluN1/GluN2D (Rattus norvegicus, UniProt P35439+Q62645) (Q62645 28-1323, other chains not shown): as above
Description: as §1, §2, §3, §4, §5

[3] = test system: Tsc1^± mice; set-up: method as in PMID 25081057; conditions: 28 mg/kg IP; heterozygote Tsc1^± mice; cited from earlier work
[4] = biological target: T1, GluN1/GluN2D; set-up: GluN2B (NM_012574.1), GluN2C (NM_012575.3), and GluN2D (NM_022797.2) were provided by; expressed in transfected cells; host or cells: Xenopus laevis oocytes (cRNA injection); conditions: cited from earlier work

Which results are given for `Cc1ccc2[nH]c(=O)c(C3=NN(C(=O)CCC(=O)O)C(c4ccc(Br)cc4)C3)c(-c3ccccc3)c2c1` (centres unmarked) [compound 1, reference compound]?
τdeactivation following glutamate removal ([1]; 0.3 μM compound, mean ± SEM): 6.6 ± 0.3 s; τdeactivation following glutamate removal ([1]; 1 μM compound, mean ± SEM): 6.9 ± 0.4 s; τdeactivation following glutamate removal ([1]; 3 μM compound, mean ± SEM): 8.0 ± 0.4 s; fold-change in IC50 for the peak and steady-state current responses ([1]; mean ± SEM, compared by ANOVA): 2.1 ± 0.2; IC50 fold higher during peak compared to steady-state ([1]; ratio of IC50 values): 1.9 fold; IC50 fold higher at first pulse compared to fifth pulse ([1]; trains of brief agonist applications): 3 fold; koff ([2]; HEK293, inhibitor preapplied, linear regression of 1/τinhibition vs concentration): 0.19 s⁻¹; IC50 ([2]; fifth of 5 brief NMDA (500 μM)/glycine (250 μM) pulses at 1 s intervals, read-out: IC50 pulse 5 (95% CI)): 1.6 µM; IC50 ([2]; first of 5 brief NMDA (500 μM)/glycine (250 μM) pulses at 1 s intervals, read-out: IC50 pulse 1 (95% CI)): 4.9 µM; Kd ([2]; inhibitor preapplied, from kON and kOFF, supplement): 0.4 µM; IC50 ([2]; peak current response to glutamate, inhibitor preapplied, read-out: IC50 peak (95% CI)): 1.4 µM; IC50 ([2]; steady-state current response to glutamate, inhibitor preapplied, read-out: IC50 steady-state (95% CI)): 0.72 µM; effect on seizure burden [3]: diminished seizure burden; IC50 [4]: 2.7 µM
